Assay results: the NIST ThermoML archive (doi:10.1016/j.jct.2013.03.005)
Values joined by “and” are separate entries in the source; they are usually repeats but may differ in a detail not shown here. Identical values can stand only once.

Columns and labels:
[1] = molar enthalpy of vaporization or sublimation; conditions: 298.15 K; Crystal; Static calorimetry
[2] = Molar enthalpy of transition or fusion; conditions: Crystal; DSC
[3] = for mass density: 298.15 K, 101.33 kPa, mass/volume ratio of a pellet; for Normal melting temperature: DTA

O=C(O)C1c2ccccc2-c2ccccc21 [9H-fluorene-9-carboxylic acid]
Conditions	Molar enthalpy of transition or fusion [kcal/mol]	molar enthalpy [kcal/mol]
[1]	–	30.4
[2]	7.23	–

[3], Crystal
Conditions	Normal melting temperature [°C]	mass density [kg/m3]
–	230.68	1164

[3], Crystal, Calculated from knudsen effusion weight loss
Conditions	vapor or sublimation pressure [kPa]
384.16 K	0.000139
386.13 K	0.000171
388.15 K	0.000211
392.14 K	0.000307
394.15 K	0.000378
396.15 K	0.000474
398.15 K	0.000558
400.13 K	0.000689
402.14 K	0.000811
404.15 K	0.000994
406.16 K	0.001182

OCC1c2ccccc2-c2ccccc21 [9-fluorenemethanol]
Conditions	Molar enthalpy of transition or fusion [kcal/mol]
[2]	6.67

[3], Crystal
Conditions	Normal melting temperature [°C]	mass density [kg/m3]
–	103.92	1084

[3]
Conditions	vapor or sublimation pressure
337.18 K, Crystal, Calculated from knudsen effusion weight loss	9.2e-05 kPa and 9e-05 kPa
339.17 K, Crystal, Calculated from knudsen effusion weight loss	0.000119 kPa and 0.000117 kPa and 0.000115 kPa
341.1 K, Crystal, Calculated from knudsen effusion weight loss	0.00015 kPa and 0.000147 kPa
343.17 K, Crystal, Calculated from knudsen effusion weight loss	0.00019 kPa and 0.000187 kPa and 0.000197 kPa
345.21 K, Crystal, Calculated from knudsen effusion weight loss	0.000247 kPa and 0.000239 kPa and 0.000243 kPa
347.13 K, Crystal, Calculated from knudsen effusion weight loss	0.000306 kPa and 0.000303 kPa and 0.000302 kPa
349.16 K, Crystal, Calculated from knudsen effusion weight loss	0.00038 kPa and 0.000381 kPa and 0.00039 kPa
351.22 K, Crystal, Calculated from knudsen effusion weight loss	0.000493 kPa and 0.000476 kPa and 0.000488 kPa
353.14 K, Crystal, Calculated from knudsen effusion weight loss	0.000611 kPa and 0.000602 kPa and 0.000607 kPa
355.17 K, Crystal, Calculated from knudsen effusion weight loss	0.000748 kPa and 0.000739 kPa and 0.000772 kPa
357.16 K, Crystal, Calculated from knudsen effusion weight loss	0.00095 kPa and 0.000955 kPa and 0.000923 kPa
359.1 K, Crystal, Calculated from knudsen effusion weight loss	0.00118 kPa and 0.001184 kPa and 0.001169 kPa
362.69 K, Liquid, Closed cell (Static) method	0.00242 kPa
364.67 K, Liquid, Closed cell (Static) method	0.00285 kPa
366.66 K, Liquid, Closed cell (Static) method	0.00333 kPa
368.63 K, Liquid, Closed cell (Static) method	0.00391 kPa
370.62 K, Liquid, Closed cell (Static) method	0.00456 kPa
372.6 K, Liquid, Closed cell (Static) method	0.00529 kPa
374.57 K, Liquid, Closed cell (Static) method	0.00615 kPa
376.56 K, Liquid, Closed cell (Static) method	0.00711 kPa
378.53 K, Liquid, Closed cell (Static) method	0.00817 kPa
380.52 K, Liquid, Closed cell (Static) method	0.00947 kPa
382.5 K, Liquid, Closed cell (Static) method	0.01089 kPa
384.49 K, Liquid, Closed cell (Static) method	0.01253 kPa
386.47 K, Liquid, Closed cell (Static) method	0.0143 kPa
388.43 K, Liquid, Closed cell (Static) method	0.01639 kPa
390.43 K, Liquid, Closed cell (Static) method	0.0188 kPa
392.39 K, Liquid, Closed cell (Static) method	0.02137 kPa
394.37 K, Liquid, Closed cell (Static) method	0.02432 kPa
396.35 K, Liquid, Closed cell (Static) method	0.02764 kPa
398.32 K, Liquid, Closed cell (Static) method	0.03131 kPa
400.3 K, Liquid, Closed cell (Static) method	0.03556 kPa
